PubChem BioAssay AID330 (DTP/NCI, 2004)
“And” between values parts separate entries of the source, which are not always exact repeats. Equal values may be shown once. Inconclusive results and toxic doses are left out.

Tested on: P388 leukemia ip, CD2F1 mice, survival T/C
Experiment: NCI In Vivo Anticancer Drug Screen. Data for tumor model P388 Leukemia (intraperitoneal) in CD2F1 (CDF1) mice
Conditions: endpoint: median survival time, higher = longer survival
How it was run: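 Mice carrying the transplanted tumor received test compound or vehicle. Survival was recorded in each group, and the value is the treated-group measurement divided by that of the vehicle-treated control group.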

[1] = dose: 50.0 mg/kg/injection, schedule: Q01DX009 (ip), vehicle: saline with Tween-80
[2] = dose: 100.0 mg/kg/injection, schedule: Q01DX009 (ip), vehicle: saline with Tween-80
[3] = dose: 200.0 mg/kg/injection, schedule: Q01DX009 (ip), vehicle: saline with Tween-80
[4] = dose: 50.0 mg/kg/injection, schedule: Q01DX009 (ip), vehicle: saline
[5] = dose: 50.0 mg/kg/injection, schedule: Q04DX003 (ip), vehicle: saline with Tween-80
[6] = dose: 100.0 mg/kg/injection, schedule: Q01DX009 (ip), vehicle: saline
[7] = dose: 200.0 mg/kg/injection, schedule: Q01DX009 (ip), vehicle: saline
[8] = dose: 25.0 mg/kg/injection, schedule: Q04DX003 (ip), vehicle: saline with Tween-80
[9] = dose: 100.0 mg/kg/injection, schedule: Q04DX003 (ip), vehicle: saline with Tween-80
[10] = dose: 30.0 mg/kg/injection, schedule: Q01DX005 (ip), vehicle: saline with Tween-80
[11] = dose: 60.0 mg/kg/injection, schedule: Q01DX005 (ip), vehicle: saline with Tween-80
[12] = dose: 120.0 mg/kg/injection, schedule: Q01DX005 (ip), vehicle: saline with Tween-80
[13] = dose: 240.0 mg/kg/injection, schedule: Q01DX005 (ip), vehicle: saline with Tween-80

CC1=C(/C=C/Cl)CC(Cl)C(C)(Cl)C1 (configuration not stated)
T/C (dose: 2.5 mg/kg/injection, schedule: Q01DX009 (ip), vehicle: Klucel (hydroxypropylcellulose) (HPC)): 102 % of control
T/C (dose: 5.0 mg/kg/injection, schedule: Q01DX009 (ip), vehicle: Klucel (hydroxypropylcellulose) (HPC)): 102 % of control
T/C (dose: 10.0 mg/kg/injection, schedule: Q01DX009 (ip), vehicle: Klucel (hydroxypropylcellulose) (HPC)): 93 % of control
T/C (dose: 20.0 mg/kg/injection, schedule: Q01DX009 (ip), vehicle: Klucel (hydroxypropylcellulose) (HPC)): 99 % of control

Fc1ccc(NC(=S)SCc2ccc(Cl)cc2)c(F)c1
T/C (dose: 50.0 mg/kg/injection, schedule: Q01DX009 (ip), vehicle: suspension in saline): 93 % of control
T/C (dose: 100.0 mg/kg/injection, schedule: Q01DX009 (ip), vehicle: suspension in saline): 100 % of control
T/C (dose: 200.0 mg/kg/injection, schedule: Q01DX009 (ip), vehicle: suspension in saline): 100 % of control

Cc1csc(=S)n1O
T/C (dose: 60.0 mg/kg/injection, schedule: Q01DX005 (ip), vehicle: saline): 101 % of control
T/C (dose: 120.0 mg/kg/injection, schedule: Q01DX005 (ip), vehicle: saline): 100 % of control
T/C (dose: 240.0 mg/kg/injection, schedule: Q01DX005 (ip), vehicle: saline): 101 % of control

CCCCCCC(=O)/C=C/c1cccc(OC)c1OC
T/C [1]: 99 % of control
T/C [2]: 107 % of control
T/C [3]: 105 % of control

COc1ccc2cc3n(c(=O)c2c1O)CCc1cc2c(cc1-3)OCO2
T/C (dose: 0.63 mg/kg/injection, schedule: Q01DX009 (ip), vehicle: distilled water + Tween-80): 101 % of control
T/C (dose: 1.25 mg/kg/injection, schedule: Q01DX009 (ip), vehicle: distilled water + Tween-80): 101 % of control
T/C (dose: 2.5 mg/kg/injection, schedule: Q01DX009 (ip), vehicle: distilled water + Tween-80): 93 % of control
T/C (dose: 5.0 mg/kg/injection, schedule: Q01DX009 (ip), vehicle: distilled water + Tween-80): 108 % of control
T/C (dose: 10.0 mg/kg/injection, schedule: Q01DX009 (ip), vehicle: distilled water + Tween-80): 101 % of control
T/C (dose: 20.0 mg/kg/injection, schedule: Q01DX009 (ip), vehicle: distilled water + Tween-80): 92 % of control

CC[As](CCO)SC1CC(OC(=O)c2ccccc2)C(OC(=O)c2ccccc2)C(COC(=O)c2ccccc2)O1 (configuration not stated)
T/C (dose: 25.0 mg/kg/injection, schedule: Q01DX009 (ip), vehicle: saline with Tween-80): 110 % of control
T/C (dose: 50.0 mg/kg/injection, schedule: Q01DX009 (ip), vehicle: saline + alcohol): 124 % of control
T/C [1]: 96 % of control
T/C [2]: 110 % of control

C/C(CCl)=N\NC1=NC2(CCCCC2)P(=O)(NNc2ncccn2)S1 (configuration not stated)
T/C (dose: 37.5 mg/kg/injection, schedule: Q01DX005 (ip), vehicle: Klucel (hydroxypropylcellulose) (HPC)): 103 % of control
T/C (dose: 60.0 mg/kg/injection, schedule: Q01DX005 (ip), vehicle: Klucel (hydroxypropylcellulose) (HPC)): 102 % of control
T/C (dose: 75.0 mg/kg/injection, schedule: Q01DX005 (ip), vehicle: Klucel (hydroxypropylcellulose) (HPC)): 102 % of control
T/C (dose: 120.0 mg/kg/injection, schedule: Q01DX005 (ip), vehicle: Klucel (hydroxypropylcellulose) (HPC)): 100 % of control

NC(Cc1cccc(NP(=S)(N2CC2)N2CC2)c1)C(=O)O (configuration not stated)
T/C (dose: 12.5 mg/kg/injection, schedule: Q04DX003 (ip), vehicle: saline): 109 % of control
T/C (dose: 25.0 mg/kg/injection, schedule: Q04DX003 (ip), vehicle: saline): 118 % of control
T/C [4]: 159 % of control
T/C [5]: 103 % of control
T/C (dose: 75.0 mg/kg/injection, schedule: Q04DX003 (ip), vehicle: saline with Tween-80): 92 % of control
T/C [6]: 181 % of control
T/C (dose: 100.0 mg/kg/injection, schedule: Q04DX003 (ip), vehicle: saline): 183 % of control
T/C [7]: 209 % of control
T/C (dose: 200.0 mg/kg/injection, schedule: Q04DX003 (ip), vehicle: saline): 225 % of control
T/C (dose: 264.0 mg/kg/injection, schedule: Q04DX003 (ip), vehicle: saline): 195 % of control
T/C (dose: 400.0 mg/kg/injection, schedule: Q04DX003 (ip), vehicle: saline): 245 % of control and 250 % of control

CCOC(=O)C(CNc1ccc(OCc2ccccc2)cc1)NC(=O)c1ccccc1 (configuration not stated)
T/C [1]: 105 % of control
T/C [4]: 96 % of control
T/C [2]: 100 % of control
T/C [6]: 88 % of control
T/C [3]: 87 % of control
T/C [7]: 88 % of control
T/C (dose: 400.0 mg/kg/injection, schedule: Q01DX009 (ip), vehicle: saline with Tween-80): 91 % of control

O=c1[nH]c(N2CCNCC2)nc2ccccc12
T/C [4]: 102 % of control
T/C [6]: 101 % of control
T/C [7]: 104 % of control

COc1cccc(OC)c1OCCBr
T/C [1]: 103 % of control
T/C [2]: 98 % of control
T/C [3]: 100 % of control

C=Cc1ccccc1-c1ccccc1C(=O)OC
T/C [8]: 100 % of control
T/C [5]: 101 % of control
T/C [9]: 99 % of control

CCOC(=O)NCCCCl
T/C [4]: 99 % of control
T/C [6]: 101 % of control
T/C [7]: 107 % of control

COc1ccc(/C=N/n2cnc3c(sc4ccccc43)c2=O)cc1
T/C (dose: 12.5 mg/kg/injection, schedule: Q01DX005 (ip), vehicle: Klucel (hydroxypropylcellulose) (HPC)): 99 % of control
T/C (dose: 25.0 mg/kg/injection, schedule: Q01DX005 (ip), vehicle: Klucel (hydroxypropylcellulose) (HPC)): 100 % of control
T/C (dose: 50.0 mg/kg/injection, schedule: Q01DX005 (ip), vehicle: Klucel (hydroxypropylcellulose) (HPC)): 87 % of control and 92 % of control
T/C (dose: 200.0 mg/kg/injection, schedule: Q01DX005 (ip), vehicle: Klucel (hydroxypropylcellulose) (HPC)): 92 % of control

O=c1[nH]c(=O)c2nc(-c3ccc(Cl)cc3)cnc2[nH]1
T/C [9]: 94 % of control
T/C (dose: 200.0 mg/kg/injection, schedule: Q04DX003 (ip), vehicle: saline with Tween-80): 102 % of control
T/C (dose: 400.0 mg/kg/injection, schedule: Q04DX003 (ip), vehicle: saline with Tween-80): 101 % of control

O=S(=O)(CCCCl)SCCCCl
T/C (dose: 7.5 mg/kg/injection, schedule: Q01DX005 (ip), vehicle: saline with Tween-80): 104 % of control
T/C (dose: 15.0 mg/kg/injection, schedule: Q01DX005 (ip), vehicle: saline with Tween-80): 105 % of control
T/C [10]: 103 % of control and 105 % of control
T/C [11]: 96 % of control

COc1ccc(N2C(=S)N(c3cccc(Cl)c3Cl)C(=O)C(N=Nc3ccccc3Cl)C2O)cc1 (configuration not stated)
T/C (dose: 100.0 mg/kg/injection, schedule: Q04DX003 (ip), vehicle: distilled water + alcohol): 102 % of control
T/C (dose: 200.0 mg/kg/injection, schedule: Q04DX003 (ip), vehicle: distilled water + alcohol): 99 % of control
T/C (dose: 400.0 mg/kg/injection, schedule: Q04DX003 (ip), vehicle: distilled water + alcohol): 97 % of control

COc1ccc(C(=O)C(Br)CS(=O)(=O)c2ccc(C)cc2)cc1 (configuration not stated)
T/C (dose: 100.0 mg/kg/injection, schedule: Q04DX002 (ip), vehicle: saline): 100 % of control
T/C (dose: 200.0 mg/kg/injection, schedule: Q04DX002 (ip), vehicle: saline): 102 % of control
T/C (dose: 400.0 mg/kg/injection, schedule: Q04DX002 (ip), vehicle: saline): 108 % of control

O=C(/C=C/c1cccc(Cl)c1)c1ccc(Cl)cc1
T/C [10]: 102 % of control
T/C [11]: 100 % of control
T/C [12]: 100 % of control
T/C [13]: 110 % of control

CCC(C)N(C(=O)c1ccccc1)c1ccccc1 (configuration not stated)
T/C (dose: 12.5 mg/kg/injection, schedule: Q01DX009 (ip), vehicle: other): 99 % of control and 106 % of control
T/C (dose: 12.5 mg/kg/injection, schedule: Q01DX009 (ip), vehicle: saline + Tween-80 + alcohol): 101 % of control
T/C (dose: 25.0 mg/kg/injection, schedule: Q01DX009 (ip), vehicle: other): 100 % of control and 102 % of control
T/C (dose: 25.0 mg/kg/injection, schedule: Q01DX009 (ip), vehicle: saline + Tween-80 + alcohol): 104 % of control
T/C (dose: 50.0 mg/kg/injection, schedule: Q01DX009 (ip), vehicle: other): 102 % of control
T/C (dose: 50.0 mg/kg/injection, schedule: Q01DX009 (ip), vehicle: saline + Tween-80 + alcohol): 106 % of control

N=C(N)n1ncc2c1CCC/C2=N/N=C(N)N
T/C [11]: 99 % of control
T/C [12]: 96 % of control
T/C [13]: 103 % of control

COc1cc(/C=C(/C)[N+](=O)[O-])cc(Br)c1OC
T/C [8]: 108 % of control
T/C [5]: 109 % of control
T/C [9]: 109 % of control

O=[N+]([O-])c1ccc2nccc(Cl)c2c1
T/C (dose: 12.5 mg/kg/injection, schedule: Q01DX009 (ip), vehicle: Klucel (hydroxypropylcellulose) (HPC)): 95 % of control
T/C (dose: 25.0 mg/kg/injection, schedule: Q01DX009 (ip), vehicle: Klucel (hydroxypropylcellulose) (HPC)): 100 % of control
